According to patent US20210355104A1, “ADENOSINE RECEPTOR BINDING COMPOUNDS” (Nikang Therapeuticsm Inc., priority 2018, published 2021):
Values joined by “and” are separate entries in the source; they are usually repeats but may differ in a detail not shown here. Equal entries are not always repeated.

How the values were obtained:
[1] = system: p-CREB (phosphorylated cAMP response-element binding protein) in human whole blood; assay: p-CREB assay in human whole blood by flow cytometry (NECA stimulation, CD4 staining); assay type: cell-based; details: Homo sapiens
Description: Assay protocol for p-CREB (phosphorylated cAMP response-element binding protein) in human whole blood by flow cytometry
Fresh human whole blood (Biological Specialty Corporation) was added at 100 ul per wellinto a 96-well plate and treated with test compounds (Serial dilutions of 1:3 with starting concentration at 30 uM, 11 concentrations total, in the presence of adenosine deaminase) for one hour at room temperature on a plate shaker. Then 10 ul of 10× NECA (50 uM stock in PBS) and 10 ul of 10 × Rolipram (50 uM stock in PBS) were added, with designated wells for unstimulated (Rolipram+DMSO) and stimulated (Rolipram+NECA+DMSO) conditions. The plates were mixed well and incubated at room temperature for 30 min on a plate shaker. 1× lyse/Fix buffer (5× stock, BD #558049) was warmed to 37° in a water bath. 1200 ul of pre-warmed 1× lyse/Fix buffer was then added to the plate, which was then sealed and mixed by inverting the plate a few times. The plate was then incubated for 30 min at 37° in a water bath. After incubation, the plate was centrifuged at 1600 rpm for 5 min and the supernatant was decanted, then 1200 ul PBS was added and the plate was mixed by inverting a few times followed by centrifuging at 1600 rpm for 5 min and again decanting the supernatant. Then, 200 ul FIX PERM buffer II (BD #558052) was added and the plate was mixed well, then kept on ice for 45 min After spinning the plate at 1600 rpm for 5 min the supernatant was again decanted. Then was added 200 ul staining buffer (BD #554657), and the plate was mixed well and spun at 1600 rpm for 5 min, then the supernatant was again decanted. 200 ul staining buffer was added, the plate was mixed well and the plate was sealed at this step for storage at 4° overnight or until staining. Before staining, the plate was spun at 1600 rpm for 5 min and the supernatant was again decanted. Antibody mix in staining buffer was prepared (75 ul/well, 1:50 dilution for p-CREB antibody from Cell Signaling Tech #14001S, 1:200 dilution for CD4 antibody from BD #566320) and the cells were resuspended in the above antibody mix solution. After mixing well, the plate was incubated (shielded from light) at room temperature for two hours on a plate shaker. It was then spun at 1600 rpm for 5 min and the supernatant was decanted. 200 ul staining buffer was then added to wash cells, and the plate was then mixed by shaking or pipetting. The wash step was repeated at least one more time, and after the final wash, cells were resusptended in 200 ul staining buffer in U bottom plate for flow cytometry analysis.

Adenosine A2A receptor [2] = molecular target: T1, Adenosine A2A receptor (Homo sapiens, UniProt P29274); assay: cAMP assay in 293A cells stably expressing the adenosine A2A receptor (CGS21680 stimulation, HTRF); assay type: cell-based; parameters: expressed in transfected cells; host or cells: 293A cells (Invitrogen, Cat# R705-07) infected with A2A-expressing lentivirus (custom packaged by Biosettia), puromycin selected; details: 293A-A2AR cells, 0.1% BSA
Adenosine A2A receptor [3] = molecular target: T1, Adenosine A2A receptor; assay: Adenosine A2A receptor competitive binding assay (Tag-lite HTRF); details: Tag-lite adenosine A2A receptor ligand binding
Method in brief: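 Compound displacement of a red fluorescent antagonist tracer (added at 60 nM stock) from donor-labelled, pre-transfected human A2A cells was read by HTRF after 2 h at room temperature; compound dilutions contained 0.6% DMSO.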

[4] = 1 uM CGS, read-out: cAMP (nM) 0.1% BSA, 1 uM CGS
[5] = 2 h room temperature, values separated by / are repeat determinations
[6] = 8 nM CGS, values separated by / are repeat determinations, read-out: cAMP (nM) 0.1% BSA, 8 nM CGS
[7] = 8 nM CGS, read-out: cAMP (nM) 0.1% BSA, 8 nM CGS
[8] = 1 uM CGS, values separated by / are repeat determinations, read-out: cAMP (nM) 0.1% BSA, 1 uM CGS

T1 sequence (P29274 whole entry): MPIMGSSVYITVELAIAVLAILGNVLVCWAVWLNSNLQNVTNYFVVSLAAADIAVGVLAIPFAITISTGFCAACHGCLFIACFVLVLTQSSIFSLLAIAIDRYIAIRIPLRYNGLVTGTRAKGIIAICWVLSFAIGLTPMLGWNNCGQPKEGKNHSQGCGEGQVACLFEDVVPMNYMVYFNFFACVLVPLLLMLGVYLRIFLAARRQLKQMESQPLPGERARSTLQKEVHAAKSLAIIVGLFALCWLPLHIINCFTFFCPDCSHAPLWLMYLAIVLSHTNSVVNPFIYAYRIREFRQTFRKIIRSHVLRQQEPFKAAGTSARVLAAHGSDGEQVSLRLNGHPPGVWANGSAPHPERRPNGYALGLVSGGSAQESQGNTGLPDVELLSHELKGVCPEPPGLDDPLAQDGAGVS

| SMILES | IC50 (Adenosine A2A receptor [3]; [5]) | IC50 (Adenosine A2A receptor [2]; [6]) | further results |
| --- | --- | --- | --- |
| Cc1cc(-c2c(OCCc3cccc(C(C)(C)O)n3)nc(N)nc2-c2ccc(F)cc2)cc(C(F)F)n1 [Example 349, 2-(6-(2-((2-amino-5-(2-(difluoromethyl)-6-methylpyridin-4-yl)-6-(4-fluorophenyl)pyrimidin-4-yl)oxy)ethyl)pyridin-2-yl)propan-2-ol] | – | – | IC50 [1]: 55 nM; IC50 (Adenosine A2A receptor [2]; [4]): 261 nM and 120 nM |
| Cc1cc(-c2c(OCc3ccn(CC(C)(C)C(=O)O)n3)nc(N)nc2-c2ccc(F)cc2)cc(C(F)F)n1 [Example 267, 3-(3-(((2-amino-5-(2-(difluoromethyl)-6-methylpyridin-4-yl)-6-(4-fluorophenyl)pyrimidin-4-yl)oxy)methyl)-1H-pyrazol-1-yl)-2,2-dimethylpropanoic acid] | – | – | IC50 [1]: 5580 nM |
| Cc1cc(-c2c(OCc3ccnc(N4CC(C)(O)C4)n3)nc(N)nc2-c2ccc(F)cc2)cc(C(F)F)n1 [Example 266, 1-(4-(((2-amino-5-(2-(difluoromethyl)-6-methylpyridin-4-yl)-6-(4-fluorophenyl)pyrimidin-4-yl)oxy)methyl)pyrimidin-2-yl)-3-methylazetidin-3-ol] | – | – | IC50 [1]: 4910 nM |
| Cc1cc(-c2c(OCCc3ccc(OC4CCN(S(C)(=O)=O)C4)cc3)nc(N)nc2-c2ccc(F)cc2)cc(C(F)F)n1 (stereo not drawn) [Example 66, 5-(2-(difluoromethyl)-6-methylpyridin-4-yl)-4-(4-fluorophenyl)-6-(4-((1-(methylsulfonyl)pyrrolidin-3-yl)oxy)phenethoxy)pyrimidin-2-amine] | 95 nM | 337 nM | – |
| CCNC(=O)COc1nc(N)nc(-c2ccccc2)c1-c1cc(C)nc(C(F)(F)F)c1 [Example 29, 2-([2-amino-5-[2-methyl-6-(trifluoromethyl)pyridin-4-yl]-6-phenylpyrimidin-4-yl]oxy)-N-ethylacetamide] | 7.74 nM | 2 nM and 2.7 nM | – |
| Cc1cc(-c2c(OCC(O)CN(C)c3ccccn3)nc(N)nc2-c2ccc(F)cc2)cc(C(F)F)n1 (stereo not drawn) [Example 201, 1-((2-amino-5-(2-(difluoromethyl)-6-methylpyridin-4-yl)-6-(4-fluorophenyl)pyrimidin-4-yl)oxy)-3-(methyl(pyridin-2-yl)amino)propan-2-ol] | – | – | IC50 (Adenosine A2A receptor [3]; HTRF): 1 nM and 6.5 nM; IC50 (Adenosine A2A receptor [2]; [7]): 4.2 nM and 3.5 nM |
| CCN(CCOc1nc(N)nc(-c2ccc(F)cc2)c1-c1cc(C)nc(C(F)F)c1)c1ncccn1 [Example 146, 5-(2-(difluoromethyl)-6-methylpyridin-4-yl)-4-(2-(ethyl(pyrimidin-2-yl)amino)ethoxy)-6-(4-fluorophenyl)pyrimidin-2-amine] | 4 nM | 5.6 nM | – |
| CCn1ccc(COc2nc(N)nc(-c3ccc(F)cc3)c2-c2cc(C)nc(C(F)F)c2)n1 [Example 228, 5-(2-(difluoromethyl)-6-methylpyridin-4-yl)-4-((1-ethyl-1H-pyrazol-3-yl)methoxy)-6-(4-fluorophenyl)pyrimidin-2-amine] | – | – | IC50 (Adenosine A2A receptor [3]; HTRF): 2.5 nM and 3.6 nM; IC50 (Adenosine A2A receptor [2]; [7]): 0.9 nM; IC50 (Adenosine A2A receptor [2]; [4]): 162 nM |
| CCc1nn[nH]c1COc1nc(N)nc(-c2ccc(F)cc2)c1-c1cc(C)nc(C(F)F)c1 [Example 137, 5-(2-(difluoromethyl)-6-methylpyridin-4-yl)-4-((4-ethyl-1H-1,2,3-triazol-5-yl)methoxy)-6-(4-fluorophenyl)pyrimidin-2-amine] | 92 nM | 40 nM | – |
| Cc1cc(-c2c(OCC3(F)CCOCC3)nc(N)nc2-c2ccc(F)cc2)cc(C(F)F)n1 [Example 102, 5-(2-(difluoromethyl)-6-methylpyridin-4-yl)-4-(4-fluorophenyl)-6-((4-fluorotetrahydro-2H-pyran-4-yl)methoxy)pyrimidin-2-amine] | 0.83 nM | – | IC50 (Adenosine A2A receptor [2]; [8]): 10 nM |
| Cc1cc(-c2c(OCCNc3ccccc3)nc(N)nc2-c2ccc(F)cc2)cc(C(F)F)n1 [Example 82, 5-(2-(difluoromethyl)-6-methylpyridin-4-yl)-4-(4-fluorophenyl)-6-(2-(phenylamino)ethoxy)pyrimidin-2-amine] | 16 nM | 1.6 nM | IC50 (Adenosine A2A receptor [2]; [8]): 936 nM |
| Cc1cc(-c2c(OCc3nc(S(C)(=O)=O)cn3C(C)C)nc(N)nc2-c2ccc(F)cc2)cc(C(F)F)n1 [Example 211, 5-(2-(difluoromethyl)-6-methylpyridin-4-yl)-4-(4-fluorophenyl)-6-((1-isopropyl-4-(methylsulfonyl)-1H-imidazol-2-yl)methoxy)pyrimidin-2-amine] | – | – | IC50 (Adenosine A2A receptor [3]; HTRF): 47 nM; IC50 (Adenosine A2A receptor [2]; [7]): 7.3 nM |
| Cc1cc(-c2c(OCC(=O)NCC(F)(F)F)nc(N)nc2-c2ccc(F)cc2)cc(C(F)F)n1 [Example 161, 2-((2-amino-5-(2-(difluoromethyl)-6-methylpyridin-4-yl)-6-(4-fluorophenyl)pyrimidin-4-yl)oxy)-N-(2,2,2-trifluoroethyl)acetamide] | 44 nM | 14 nM | – |
| CNC(=O)COc1nc(N)nc(-c2ccc(F)cc2)c1-c1cc(C)nc(C(F)F)c1 [Example 32, 2-((2-amino-5-(2-(difluoromethyl)-6-methylpyridin-4-yl)-6-(4-fluorophenyl)pyrimidin-4-yl)oxy)-N-methylacetamide] | 13.9 nM | 6.1 nM and 6.7 nM | – |
| CCN(CC)C(=O)COc1nc(N)nc(-c2ccco2)c1-c1cc(C)nc(C(F)(F)F)c1 [Example 11, 2-((2-amino-6-(furan-2-yl)-5-(2-methyl-6-(trifluoromethyl)pyridin-4-yl)pyrimidin-4-yl)oxy)-N,N-diethylacetamide] | 7.21 nM | 3.2 nM | – |
| COC(=O)NCCOc1nc(N)nc(-c2ccc(F)cc2)c1-c1cc(C)nc(C(F)F)c1 [Example 116, methyl(2-((2-amino-5-(2-(difluoromethyl)-6-methylpyridin-4-yl)-6-(4-fluorophenyl)pyrimidin-4-yl)oxy)ethyl)carbamate] | 7.3 nM | 4.7 nM and 3.2 nM | – |
| CNC(=O)NCCOc1nc(N)nc(-c2ccccc2)c1-c1cc(C)nc(C(F)(F)F)c1 [Example 120, 1-(2-((2-amino-5-(2-methyl-6-(trifluoromethyl)pyridin-4-yl)-6-phenylpyrimidin-4-yl)oxy)ethyl)-3-methylurea] | 8.8 nM | 13 nM and 8.2 nM | – |
| Cc1cc(-c2c(OCCNc3ccccn3)nc(N)nc2-c2ccc(F)cc2)cc(C(F)F)n1 [Example 94, 5-(2-(difluoromethyl)-6-methylpyridin-4-yl)-4-(4-fluorophenyl)-6-(2-(pyridin-2-ylamino)ethoxy)pyrimidin-2-amine] | 2.4 nM | 0.39 nM and 2.9 nM | – |
| CCN(CC)C(=O)[C@@H](C)Oc1nc(N)nc(-c2ccccc2)c1-c1cc(C)nc(C(F)(F)F)c1 [Example 13, (R)-2-((2-amino-5-(2-methyl-6-(trifluoromethyl)pyridin-4-yl)-6-phenylpyrimidin-4-yl)oxy)-N,N-diethylpropanamide] | 303 nM | 161 nM | – |
| Cc1cc(-c2c(OCCC(C)(C)C(=O)O)nc(N)nc2-c2ccc(F)cc2)cc(C(F)F)n1 [Example 70, 4-((2-amino-5-(2-(difluoromethyl)-6-methylpyridin-4-yl)-6-(4-fluorophenyl)pyrimidin-4-yl)oxy)-2,2-dimethylbutanoic acid] | 3.6 nM and 1 nM and 4 nM | – | IC50 (Adenosine A2A receptor [2]; [8]): 513 nM and 315 nM and 231 nM and 229 nM and 143 nM |
| CNS(=O)(=O)NCCOc1nc(N)nc(-c2ccc(F)cc2)c1-c1cc(C)nc(C(F)F)c1 [Example 115] | 19 nM | 9.9 nM | IC50 (Adenosine A2A receptor [2]; [8]): 820 nM |
| Cc1cc(-c2c(OCc3nccn3CC(C)C(=O)O)nc(N)nc2-c2ccc(F)cc2)cc(C(F)F)n1 (stereo not drawn) [Example 207, 3-(2-(((2-amino-5-(2-(difluoromethyl)-6-methylpyridin-4-yl)-6-(4-fluorophenyl)pyrimidin-4-yl)oxy)methyl)-1H-imidazol-1-yl)-2-methylpropanoic acid] | – | – | IC50 (Adenosine A2A receptor [3]; HTRF): 28 nM; IC50 (Adenosine A2A receptor [2]; [7]): 29 nM |
